Laboratory results from ChEMBL document CHEMBL3526031, “Mechanistic studies on the absorption and disposition of scutellarin in humans: selective OATP2B1-mediated hepatic uptake is a likely key determinant for its unique pharmacokinetic characteristics” (Drug Metab Dispos, 2012).

Columns and labels:
[1] = biological target: T1, UDP-glucuronosyltransferase 1A1 (Homo sapiens, UniProt P22309); assay: Drug metabolism assessed as human recombinant UGT1A1-mediated formation of scutellarein-6,7-diglucuronide after 25 mins by HPLC/UV analysis; format: ADME
T1 sequence (P22309 whole entry): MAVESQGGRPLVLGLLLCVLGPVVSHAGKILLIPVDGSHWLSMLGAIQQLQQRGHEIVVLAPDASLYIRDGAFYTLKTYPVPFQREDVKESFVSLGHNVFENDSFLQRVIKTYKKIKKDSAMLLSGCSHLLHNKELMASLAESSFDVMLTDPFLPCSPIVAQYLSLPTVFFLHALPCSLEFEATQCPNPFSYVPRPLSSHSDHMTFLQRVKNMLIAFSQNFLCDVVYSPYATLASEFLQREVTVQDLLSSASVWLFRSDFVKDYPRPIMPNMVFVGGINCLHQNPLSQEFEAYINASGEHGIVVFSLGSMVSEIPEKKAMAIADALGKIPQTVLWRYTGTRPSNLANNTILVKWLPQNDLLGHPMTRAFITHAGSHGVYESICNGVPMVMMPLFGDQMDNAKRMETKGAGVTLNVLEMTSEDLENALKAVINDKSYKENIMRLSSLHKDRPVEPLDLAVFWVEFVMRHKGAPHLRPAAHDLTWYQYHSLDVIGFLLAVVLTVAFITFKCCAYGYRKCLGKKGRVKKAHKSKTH

[2] = biological target: T2, Solute carrier organic anion transporter family member 2B1 (Homo sapiens, UniProt O94956); assay: Drug uptake assessed as OATP2B1 (unknown origin)-mediated drug transport expressed in HEK293 cells by LC-MS/MS analysis; format: ADME, cell-based
T2 sequence (O94956 whole entry): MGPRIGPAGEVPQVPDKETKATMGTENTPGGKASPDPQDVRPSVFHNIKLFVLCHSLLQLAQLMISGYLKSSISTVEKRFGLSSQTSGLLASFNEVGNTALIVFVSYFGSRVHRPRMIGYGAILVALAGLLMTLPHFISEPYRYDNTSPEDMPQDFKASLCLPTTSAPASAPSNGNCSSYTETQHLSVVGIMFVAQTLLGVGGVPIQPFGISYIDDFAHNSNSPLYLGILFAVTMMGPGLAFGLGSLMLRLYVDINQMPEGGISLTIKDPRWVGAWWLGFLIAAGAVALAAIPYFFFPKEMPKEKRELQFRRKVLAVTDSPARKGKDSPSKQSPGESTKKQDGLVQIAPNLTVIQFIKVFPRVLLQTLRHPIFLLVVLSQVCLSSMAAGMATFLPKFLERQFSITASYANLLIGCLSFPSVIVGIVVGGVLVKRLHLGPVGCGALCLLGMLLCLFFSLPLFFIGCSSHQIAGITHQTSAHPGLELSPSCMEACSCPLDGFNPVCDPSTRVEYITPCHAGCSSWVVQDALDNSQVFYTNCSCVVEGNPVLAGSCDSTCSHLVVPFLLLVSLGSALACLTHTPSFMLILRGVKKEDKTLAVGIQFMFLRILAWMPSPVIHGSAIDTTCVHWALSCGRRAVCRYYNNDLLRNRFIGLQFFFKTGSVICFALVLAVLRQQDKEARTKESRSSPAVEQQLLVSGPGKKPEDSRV

Row | Ki [2] [µM] | Structure (SMILES) | Ki [1] [µM]
1 | – | O=C(O)[C@H]1O[C@@H](Oc2cc3oc(-c4ccc(O)cc4)cc(=O)c3c(O)c2O)[C@H](O)[C@@H](O)[C@@H]1O [SCUTELLARIN] | 96.6
2 | 25.9 | O=C(O)[C@H]1O[C@@H](Oc2c(O)cc3oc(-c4ccc(O)cc4)cc(=O)c3c2O)[C@H](O)[C@@H](O)[C@@H]1O | –
